The values below come from patent US10717716B2, “1,3,4-oxadiazole derivative compounds as histone deacetylase 6 inhibitor, and the pharmaceutical composition comprising the same” (Chong Kun Dang Pharmaceutical Corp., priority 2015, dated 2020).

This test addresses T1, human recombinant HDAC6 (Homo sapiens, UniProt Q9UBN7).
T1 construct: purchased Calbiochem 382180
T1 sequence (Q9UBN7 1-1215): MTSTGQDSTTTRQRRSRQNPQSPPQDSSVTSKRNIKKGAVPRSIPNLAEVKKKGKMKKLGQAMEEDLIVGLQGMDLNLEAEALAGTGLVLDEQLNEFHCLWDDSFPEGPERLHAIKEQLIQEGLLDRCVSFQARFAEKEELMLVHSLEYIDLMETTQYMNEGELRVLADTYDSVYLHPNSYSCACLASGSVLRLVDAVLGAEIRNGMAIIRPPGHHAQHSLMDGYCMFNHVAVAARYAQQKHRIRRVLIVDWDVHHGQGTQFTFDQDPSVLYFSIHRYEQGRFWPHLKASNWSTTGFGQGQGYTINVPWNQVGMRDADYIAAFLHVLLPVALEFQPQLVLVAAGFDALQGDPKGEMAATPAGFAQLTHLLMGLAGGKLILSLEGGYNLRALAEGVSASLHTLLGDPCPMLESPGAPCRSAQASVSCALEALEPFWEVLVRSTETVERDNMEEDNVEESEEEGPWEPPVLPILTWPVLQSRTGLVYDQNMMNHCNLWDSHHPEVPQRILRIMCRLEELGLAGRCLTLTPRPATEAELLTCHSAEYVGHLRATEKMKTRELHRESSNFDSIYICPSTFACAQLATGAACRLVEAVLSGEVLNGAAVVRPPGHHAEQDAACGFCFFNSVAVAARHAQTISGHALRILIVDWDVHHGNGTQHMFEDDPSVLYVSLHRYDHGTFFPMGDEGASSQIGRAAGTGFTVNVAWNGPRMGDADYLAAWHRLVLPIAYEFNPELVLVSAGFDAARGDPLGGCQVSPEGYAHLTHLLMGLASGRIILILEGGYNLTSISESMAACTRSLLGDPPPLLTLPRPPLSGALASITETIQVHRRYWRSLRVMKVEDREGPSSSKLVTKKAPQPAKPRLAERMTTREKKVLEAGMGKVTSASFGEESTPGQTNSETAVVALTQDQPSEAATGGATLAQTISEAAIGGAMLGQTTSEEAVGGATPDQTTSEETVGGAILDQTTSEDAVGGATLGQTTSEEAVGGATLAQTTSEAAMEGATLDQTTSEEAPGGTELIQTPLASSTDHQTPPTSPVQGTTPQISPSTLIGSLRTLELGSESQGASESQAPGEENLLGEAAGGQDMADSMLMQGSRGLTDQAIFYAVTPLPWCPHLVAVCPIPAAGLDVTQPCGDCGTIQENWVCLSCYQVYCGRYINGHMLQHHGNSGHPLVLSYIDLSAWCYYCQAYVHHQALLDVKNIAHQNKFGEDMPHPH
Description: HDAC6 enzyme activity inhibition assay (HDAC Fluorimetric Drug Discovery Kit). To be noted: for HDAC6 selectivity (fold): HDAC6 over HDAC1; for IC50: human recombinant HDAC6, same protocol as HDAC1, read-out: HDAC6. The class given is biochemical. A digest of the protocol:
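Fluorimetric deacetylase assay: 5-fold serial compound dilutions, 0.3 μg recombinant human enzyme (HDAC1 or HDAC6, same protocol), 10 μM Fluor de Lys-SIRT1 substrate, 60 min at 30 °C. Signal developed 30 min, measured at 360/460 nm; IC50 values derived.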

For `CC(C)N(Cc1ccc(-c2nnc(C(F)(F)F)o2)cc1)C(=O)N1CCS(=O)(=O)CC1` [Compound 21397, N-isopropyl-N-(4-(5-(trifluoromethyl)-1,3,4-oxadiazol-2-yl)benzyl)thiomorpholine-4-carboxamide 1,1-dioxide], the “HDAC6 selectivity (fold)” value is recorded as 11 fold and the IC50 turned out to be 882 nM.

On to `CN(Cc1ccc(-c2nnc(C(F)(F)F)o2)cc1)C(=O)N1CCOCC1` [Compound 21398, N-methyl-N-(4-(5-(trifluoromethyl)-1,3,4-oxadiazol-2-yl)benzyl)morpholine-4-carboxamide], for which the “HDAC6 selectivity (fold)” value was 12 fold and the IC50 came to 849 nM.

`CCN(Cc1ccc(-c2nnc(C(F)(F)F)o2)cc1)C(=O)N1CCOCC1` [Compound 21399, N-ethyl-N-(4-(5-(trifluoromethyl)-1,3,4-oxadiazol-2-yl)benzyl)morpholine-4-carboxamide]: the “HDAC6 selectivity (fold)” value came out at 13 fold and the IC50 came to 780 nM.

As for `CCCN(Cc1ccc(-c2nnc(C(F)(F)F)o2)cc1)C(=O)N1CCOCC1` [Compound 21400, N-propyl-N-(4-(5-(trifluoromethyl)-1,3,4-oxadiazol-2-yl)benzyl)morpholine-4-carboxamide], the “HDAC6 selectivity (fold)” value came out at 17 fold and the IC50 was 582 nM.

As for `CCCCN(Cc1ccc(-c2nnc(C(F)(F)F)o2)cc1)C(=O)N1CCOCC1` [Compound 21401, N-butyl-N-(4-(5-(trifluoromethyl)-1,3,4-oxadiazol-2-yl)benzyl)morpholine-4-carboxamide], the “HDAC6 selectivity (fold)” value was determined as 20 fold and the IC50 came to 497 nM.

For `CCCN(C)C(=O)N(Cc1ccc(-c2nnc(C(F)(F)F)o2)cc1)c1ccccc1` [Compound 21402, 1-Methyl-3-phenyl-1-propyl-3-(4-(5-(trifluoromethyl)-1,3,4-oxadiazol-2-yl)benzyl)urea], the “HDAC6 selectivity (fold)” value was 45 fold and the IC50 was found to be 222 nM.

Take `O=C(N1CCN(c2ccccn2)CC1)N(Cc1ccc(-c2nnc(C(F)(F)F)o2)cc1)c1ccccc1` [Compound 21403, N-phenyl-4-(pyridin-2-yl)-N-(4-(5-(trifluoromethyl)-1,3,4-oxadiazol-2-yl)benzyl)piperazine-1-carboxamide]: the “HDAC6 selectivity (fold)” value is 30 fold and the IC50 was determined as 334 nM.

As for `CCOC(=O)CN1[C@H](C)CN(C(=O)N(Cc2ccc(-c3nnc(C(F)(F)F)o3)cc2)c2ccccc2)C[C@@H]1C` [Compound 21404, Ethyl 2-((2S,6R)-2,6-dimethyl-4-(phenyl(4-(5-(trifluoromethyl)-1,3,4-oxadiazol-2-yl)benzyl)carbamoyl)piperazin-1-yl)acetate], the “HDAC6 selectivity (fold)” value was 40 fold and the IC50 came out at 247 nM.

For the compound `O=C(N1CCOCC1)N(Cc1ccc(-c2nnc(C(F)(F)F)o2)cc1)c1cccc(C(F)(F)F)c1` [Compound 21405, N-(4-(5-(trifluoromethyl)-1,3,4-oxadiazol-2-yl)benzyl)-N-(3-(trifluoromethyl)phenyl)morpholine-4-carboxamide], the “HDAC6 selectivity (fold)” value is reported as 28 fold and the IC50 came out at 354 nM.

In the case of `O=C(N1CCOCC1)N(Cc1ccc(-c2nnc(C(F)(F)F)o2)cc1)c1ccc(C(F)(F)F)cc1` [Compound 21406, N-(4-(5-(trifluoromethyl)-1,3,4-oxadiazol-2-yl)benzyl)-N-(4-(trifluoromethyl)phenyl)morpholine-4-carboxamide], the “HDAC6 selectivity (fold)” value worked out at 16 fold and the IC50 came out at 619 nM.

For `O=C(N1CCOCC1)N(Cc1ccc(-c2nnc(C(F)(F)F)o2)cc1)c1cccc(F)c1` [Compound 21407, N-(3-fluorophenyl)-N-(4-(5-(trifluoromethyl)-1,3,4-oxadiazol-2-yl)benzyl)morpholine-4-carboxamide], the “HDAC6 selectivity (fold)” value came to 71 fold and the IC50 is 140 nM.

Take `O=C(N1CCOCC1)N(Cc1ccc(-c2nnc(C(F)(F)F)o2)cc1)c1cccc(C(F)(F)F)n1` [Compound 21408, N-(4-(5-(trifluoromethyl)-1,3,4-oxadiazol-2-yl)benzyl)-N-(6-(trifluoromethyl)pyridin-2-yl)morpholine-4-carboxamide]: the “HDAC6 selectivity (fold)” value was determined as 14 fold and the IC50 is 706 nM.

Turning to `O=C(N1CCS(=O)(=O)CC1)N(Cc1ccc(-c2nnc(C(F)(F)F)o2)cc1)c1ccccn1` [Compound 21409, N-(pyridin-2-yl)-N-(4-(5-(trifluoromethyl)-1,3,4-oxadiazol-2-yl)benzyl)thiomorpholine-4-carboxamide 1,1-dioxide], the “HDAC6 selectivity (fold)” value is 33 fold and the IC50 was found to be 304 nM.

`O=C(N1CCS(=O)(=O)CC1)N(Cc1ccc(-c2nnc(C(F)(F)F)o2)cc1Cl)c1ccccc1` [Compound 21410, N-(2-chloro-4-(5-(trifluoromethyl)-1,3,4-oxadiazol-2-yl)benzyl)-N-phenylthiomorpholine-4-carboxamide 1,1-dioxide]: the “HDAC6 selectivity (fold)” value turned out to be 12 fold and the IC50 turned out to be 840 nM.

`O=C(N1CCS(=O)(=O)CC1)N(Cc1ccc(-c2nnc(C(F)F)o2)cc1Cl)c1ccccc1` [Compound 21411, N-(2-chloro-4-(5-(difluoromethyl)-1,3,4-oxadiazol-2-yl)benzyl)-N-phenylthiomorpholine-4-carboxamide 1,1-dioxide]: the “HDAC6 selectivity (fold)” value worked out at 5 fold and the IC50 is 2150 nM.

`O=C(N1CCS(=O)(=O)CC1)N(Cc1ccc(-c2nnc(C(F)(F)F)o2)cc1)c1ccc(C(F)(F)F)cc1` [Compound 21412, N-(4-(5-(trifluoromethyl)-1,3,4-oxadiazol-2-yl)benzyl)-N-(4-(trifluoromethyl)phenyl)thiomorpholine-4-carboxamide 1,1-dioxide]: the “HDAC6 selectivity (fold)” value came to 21 fold and the IC50 is 470 nM.

With `O=C(N1CCS(=O)(=O)CC1)N(Cc1ccc(-c2nnc(C(F)(F)F)o2)cc1)c1ccc(Br)cc1` [Compound 21413, N-(4-bromophenyl)-N-(4-(5-(trifluoromethyl)-1,3,4-oxadiazol-2-yl)benzyl)thiomorpholine-4-carboxamide 1,1-dioxide], the “HDAC6 selectivity (fold)” value was 41 fold and the IC50 was found to be 246 nM.

Turning to `O=C(N1CCOCC1)N(Cc1ccc(-c2nnc(C(F)(F)F)o2)cc1)c1ccc(F)cc1F` [Compound 21414, N-(2,4-difluorophenyl)-N-(4-(5-(trifluoromethyl)-1,3,4-oxadiazol-2-yl)benzyl)morpholine-4-carboxamide], the “HDAC6 selectivity (fold)” value was determined as 79 fold and the IC50 is 126 nM.

Take `Cc1ccc(N(Cc2ccc(-c3nnc(C(F)(F)F)o3)cc2)C(=O)N2CCOCC2)c(F)c1` [Compound 21415, N-(2-fluoro-4-methylphenyl)-N-(4-(5-(trifluoromethyl)-1,3,4-oxadiazol-2-yl)benzyl)morpholine-4-carboxamide]: the “HDAC6 selectivity (fold)” value was found to be 33 fold and the IC50 came to 299 nM.

In the case of `CC(C)(C)OC(=O)N1CC2(CCN(C(=O)N(Cc3ccc(-c4nnc(C(F)(F)F)o4)cc3)c3ccccc3)CC2)C1` [Compound 21416, Ten-butyl 7-(phenyl(4-(5-(trifluoromethyl)-1,3,4-oxadiazol-2-yl)benzyl)carbamoyl)-2,7-diazaspiro[3.5]nonane-2-carboxylate], the “HDAC6 selectivity (fold)” value came out at 6 fold and the IC50 came to 1590 nM.
